Laboratory results from article PMC6040651 (Pediatric blood & cancer, 2018).
Like-named read-outs stand apart in the source and are kept apart here.

Experiments:
[1] = test system: xenografts from neuroblastoma cell lines; details: xenografts from four of six neuroblastoma cell lines; cited from earlier work
[2] = test system: acetylated histone H3 in PBMC; experiment: PBMC histone acetylation; assay type: in vivo, patients; details: for Mean percent change in histone acetylation (HA) levels from baseline: PBMC
[3] = Vorinostat serum pharmacokinetics, cycle 1
[4] = test system: histone acetylation in PBMC; details: cited from earlier work
[5] = test system: refractory/recurrent neuroblastoma; experiment: Antitumor activity; assay type: in vivo, patients; details: vorinostat + isotretinoin
[6] = dosed continuously; pediatric relapsed solid tumors; cited from earlier work
[7] = Phase I dose escalation and toxicity assessment; details: dose level 5 (430 mg/m^2/dose) + isotretinoin, n = 6
[8] = Isotretinoin pharmacokinetics, single sample on cycle 1 day 14; details: human, serum, oral, 80 mg/m^2/dose, 4 hr after the last dose of isotretinoin in cycle 1 (80 mg/m^2/dose twice daily), 12 patients
[9] = all dose levels, n = 23/28, geometric mean (95% confidence interval), oral, cycle 1
[10] = dose level 1 (180 mg/m^2/dose), n = 6/7, geometric mean (95% confidence interval), oral, cycle 1
[11] = dose level 5—MTD (430 mg/m^2/dose), n = 9/12, geometric mean (95% confidence interval), oral, cycle 1

Compound: O=C(CCCCCCC(=O)Nc1ccccc1)NO [vorinostat, suberoylanilide hydroxamic acid]
- Event-free survival compared to control-treated mice [1]: statistically significant prolongation in event-free survival
- Percent change from baseline in HA levels, dose level 5 compared to dose levels 1–4 ([2]; 1 hr post treatment, P = 0.009, difference persisted at hours 6 and 24): significantly greater
- Mean percent change in histone acetylation (HA) levels from baseline ([2]; dose level 5, hour 1, 6 patients): 18.5%
- Mean percent change in histone acetylation (HA) levels from baseline ([2]; dose level 5, hour 6, 6 patients): 21.9%
- Mean percent change in histone acetylation (HA) levels from baseline ([2]; dose level 5, hour 24, 5 patients): 14.4%
- Mean percent change in histone acetylation (HA) levels from baseline ([2]; dose levels 1–4, hour 1, 7 patients): –3.9%
- Mean percent change in histone acetylation (HA) levels from baseline ([2]; dose levels 1–4, hour 6, 5 patients): –2.9%
- Clearance (Cl F obs) [3, 9]: 151 (115, 197) l/hr
- Cmax [3, 9]: 428 (348, 526) ng/ml
- Clearance (Cl F obs) [3, 10]: 152 (93, 250) l/hr
- t½ [3, 10]: 2.6 (1.7, 4.0) hr
- Clearance (Cl F obs) ([3]; dose level 2 (230 mg/m^2/dose), n = 2/3, geometric mean (95% confidence interval), oral, cycle 1): 181 (76, 427) l/hr
- Clearance (Cl F obs) ([3]; dose level 3 (300 mg/m^2/dose), n = 3/3, geometric mean (95% confidence interval), oral, cycle 1): 129 (64, 260) l/hr
- Clearance (Cl F obs) ([3]; dose level 4 (360 mg/m^2/dose), n = 3/3, geometric mean (95% confidence interval), oral, cycle 1): 322 (159, 649) l/hr
- Clearance (Cl F obs) [3, 11]: 118 (79, 177) l/hr
- t½ [3, 11]: 3.2 (2.3, 4.5) hr
- AUC(0-inf) ([3]; human, serum, oral): 930 to 5780 ng·h/mL
- Cmax ([3]; human, serum, oral): 158 to 980 ng/mL
- clearance ([3]; human, serum, oral): 967 to 7250 mL/min
- half-life ([3]; human, serum, oral): 1.2 to 10.1 h
- AUC(0-inf) ([3]; human, serum, po): 2170 ng·h/mL
- AUC(0-inf) ([3]; human, serum, po, 180 mg/m2): 1350 ng·h/mL
- AUC(0-inf) ([3]; human, serum, po, 230 mg/m2): 1670 ng·h/mL
- half-life ([3]; human, serum, po, 230 mg/m2): 2.4 h
- AUC(0-inf) ([3]; human, serum, po, 300 mg/m2): 2640 ng·h/mL
- Cmax ([3]; human, serum, po, 300 mg/m2): 552 ng/mL
- AUC(0-inf) ([3]; human, serum, po, 430 mg/m2): 3250 ng·h/mL
- Cmax ([3]; human, serum, po, 430 mg/m2): 587 ng/mL
- Histone acetylation in PBMC ([4]; continuous vorinostat MTD (230 mg/m^2/dose)): only transient PBMC HA was observed
- Histone acetylation in PBMC ([4]; highest continuous dose level of vorinostat (300 mg/m^2/dose)): consistent PBMC HA
- Objective responses (CR or PR) ([5]; all dose levels, 19 patients evaluable for response): No objective responses
- Patients who received 11–15 cycles of therapy ([5]; 7/29 patients): 24%
- Patients completing ≥4 cycles without tumor progression ([5]; 11 of the 29 patients): 38%
- 6-month PFS rate ([5]; entire cohort of 29 patients): 0.36 ± 0.09
- Median PFS ([5]; entire cohort of 29 patients, 95% confidence interval 1.6–11.0 months): 2.0 months
- MTD of vorinostat alone [6]: 230 mg/m^2/day
- Number of patients with grade 3+ upper respiratory infection ([7]; all cycles): 1
- Number of patients with grade 3+ upper respiratory infection ([7]; first cycle): 0

Compound: CC1=C(/C=C/C(C)=C/C=C/C(C)=C\C(=O)O)C(C)(C)CCC1 [isotretinoin, cis-13-retinoic acid]
- concentration at 4 h ([8]; Median serum concentration): 830 ng/mL
- concentration at 4 h ([8]; Serum concentration, range): 190 to 1400 ng/mL
